Test results taken from paper PMC6315388, “Azasulfurylpeptide Modulation of CD36-Mediated Inflammation Without Effect on Neovascularization” (Biomedicines, 2018).
Where two headings read alike, the source gives them in different places. Marks after values point to notes of the source that are not given here. Starred links: 1 amine or outer side, 2 acyl side, 3 side chain; linkers in the order of their positions; H or OH if unused. Non-standard residues stand in square brackets, D forms with d. Residues, ends and D or L forms follow the SMILES beside them. aza(4-F)Phe = aza-4-fluorophenylalanine (alpha-carbon replaced by nitrogen, para-fluoro), O=C(N(Cc1ccc(F)cc1)N[*:1])[*:2]; X1 = O=C([C@@H](Cc1ccccc1)NS(=O)(=O)N(Cc1ccc(F)cc1)N[*:1])[*:2]; azaTyr = O=C(N(Cc1ccc(O)cc1)N[*:1])[*:2]

Legend:
CD36 [1] = biological target: T1, CD36 (Rattus norvegicus, UniProt Q07969); experiment: Competition with [125I]-Tyr-Bpa-Ala-hexarelin tracer for CD36 binding on purified rat heart membranes; settings: purified membranes from rat heart, read-out: CD36 binding affinity IC50
T1 construct: purified membranes from rat heart as a source of CD36; from tissue; host or cells: rat heart (purified membranes)
T1 sequence (Q07969 whole entry): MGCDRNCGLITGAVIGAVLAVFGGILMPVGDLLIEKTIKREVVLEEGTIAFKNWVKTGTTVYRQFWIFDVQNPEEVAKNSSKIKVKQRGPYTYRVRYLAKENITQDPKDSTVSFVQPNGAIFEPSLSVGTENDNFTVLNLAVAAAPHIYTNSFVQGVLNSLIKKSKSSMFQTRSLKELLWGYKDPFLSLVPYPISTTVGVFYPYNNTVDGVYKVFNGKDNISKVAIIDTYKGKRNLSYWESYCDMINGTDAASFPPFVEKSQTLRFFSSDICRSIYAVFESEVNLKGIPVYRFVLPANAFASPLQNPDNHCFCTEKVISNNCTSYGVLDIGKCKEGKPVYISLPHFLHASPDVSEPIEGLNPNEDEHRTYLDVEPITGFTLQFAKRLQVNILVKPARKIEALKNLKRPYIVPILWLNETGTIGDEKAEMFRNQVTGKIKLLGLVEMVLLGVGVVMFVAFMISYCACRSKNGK
Procedure: The ability of [(4-F)AsF^4]-GHRP-6 (3c) to compete with the radiolabeled [^125I]-Tyr-Bpa-Ala-hexarelin used as tracer for CD36 binding was tested on purified membranes from rat heart as a source of CD36 [36].

[2] = tested on: NO overproduction in J774 macrophage cell line elicited by TLR-2 agonist (R-FSL-1); experiment: Modulation of TLR2 agonist (R-FSL-1)-induced overproduction of nitric oxide in J774 macrophage cell line (nitrite, DAN fluorescence); assay type: cell-based, murine; settings: J774 macrophages; for NO inhibition Fold of 1: 2 h pre-incubation, overnight stimulation with 300 ng/mL R-FSL-1; for Inhibitory effect on R-FSL-elicited NO production (in words): R-FSL-1
Procedure: The murine J774A.1 macrophage cell lines were obtained from American Type Cell Collection (ATCC #TIB-67), seeded at 1.5 × 10^5 cells/well in Dulbecco’s modified eagle media (DMEM) containing 100U/mL of penicillin (Pen) and 100 μg/mL of streptomycin (Strep) on a 48-well plate (Costar® #3548), and incubated at 37 °C with 5% CO2. After 2 h, the medium of adhered cells was changed to DMEM-Pen/Strep containing 0.2% of bovine serum albumin (BSA), and supplemented with either azasulfurylpeptide 3a–f or [azaK^6]-GHRP-6 as a negative control. After 2 h of pre-incubation, the cells were stimulated overnight with 300 ng/mL of R-FSL-1. Supernatants were collected for fluorescence determination of nitrite using 2,3-diaminonaphtalene (DAN). Briefly, 25 μL of sample was incubated with 0.5 μg of DAN in a 100 μL final volume of phosphate buffer (50 mM, pH 7.5) at rt in the dark. After 15 min, the reaction was stopped with 20 µL of NaOH (2.8N) and the plate was read using a fluorescence plate reader (TECAN® Safire, λexc 365 nm and λem 430 nm).

[3] = tested on: TNFα secretion in peritoneal macrophages; experiment: TNFα secretion by peritoneal macrophages stimulated with R-FSL-1 (ELISA); assay type: cell-based, C57BL/6 mice; settings: 1 µM peptide, 2 h pretreatment, R-FSL-1 300 ng/mL, NA: no activity
Procedure: (§1) Peritoneal macrophage cells from C57BL/6 mice were harvested from sterile DMEM cell-culture medium (Wisent # 319-005-CL), allowed to adhere for 1 h at 37 °C in a 5% CO2 atmosphere, and washed twice with PBS to remove non-adherent cells. Macrophages (0.5 × 10^6 cells/well) were plated in 48 well-culture plates with DMEM containing 0.2% of bovine serum albumin (BSA), pretreated for 2 h with azasulfurylpeptides 3b–e or [azaK^6]-GHRP-6 (1 µM), before stimulation with a TLR2 ligand: R-FSL-1 (Invivogen® #L7022) at 300 ng/mL interferon gamma (IFNγ R&D Systems® Minneapolis, MN, USA # 172-5201) at 20 ng/mL for 4 or 24 h. The supernatants were recovered, and ELISA (eBioscience® #88-7324; 88-7391) was performed to determine the levels of proinflammatory cytokine and chemokine (TNFα, MCP-1). The effect on NF-κB activation was documented on cell lysates after 0, 5, 10, 15 and 30 min stimulation with R-FSL1, using NF-κB p65/RelA specific ELISA-based assay (eBioscience® #85-86083). The results were expressed as mean ± SEM and analyzed statistically by a one-way analysis of variance (ANOVA) with a Dunnett as a post-test. Level of significance was set at P < 0.05.

[4] = tested on: subretinal IBA-1 positive cells (activated microglia/macrophages); experiment: Blue-light illumination model of retinal inflammation: IBA-1-positive cells in the subretinal space; assay type: in vivo; settings: ApoE−/− mice, 1000 lux blue light 5 d, 289 nmol/kg s.c. for 7 consecutive days, vs illuminated vehicle-treated mice, n = 3–5
Procedure: Apo E deficient (ApoE^−/−) mice were obtained from The Jackson Laboratory (Bar Harbor, ME, USA). Animals were housed under 12 h light/dark cycles and fed ad libitum with a standard rodent diet. All experimental procedures were done in accordance with the Animal Ethics Committee at Université de Montreal (CDEA, project 12-012 approved on 26 January 2013) and the Canadian Council on Animal Care guidelines for use of experimental animals.
Three to four-month-old ApoE^−/− mice were exposed to blue LED-light (Yescom USA, Inc., City Of Industry, CA, USA) for 5 d at 1000 lux illumination without previous dark-adaptation. For pupil dilatation, ophthalmic atropine solution 1% (Alcon, Fort Worth, TX, USA) was applied to both eyes daily. Aza- and azasulfurylpeptides 1, 2 and 3c or [azaK^6]-GHRP-6 (289 nmol/kg) were administered subcutaneously at 24 h following blue-light exposure for 7 consecutive days. At the end of the blue-light exposure period, the mice were maintained on a 12:12 h light: dark cycle for 3 days, before being sacrificed. Enucleated eyes were fixed in 4% paraformaldehyde (PFA) for 15 min at rt and sectioned at the limbus; the anterior segments were discarded. The posterior eye cups consisting of retinal pigment epithelium (RPE)/choroid/sclera complex were collected and prepared for immunofluorescence analysis.
RPE/choroid/sclera flat-mounts were treated with PBS solution containing 0.1% Triton 100× and 10% fetal bovine serum (FBS) or 5% BSA (saturation buffer) for 45 min. Specimens were incubated overnight at 4 °C with primary antibodies diluted in saturation buffer. Immunofluorescence was performed using polyclonal rabbit anti-IBA-1 as marker of activated cells. […] Flatmounts were analyzed using an IX81 Olympus fluorescence microscope (Richmond Hill, ON, Canada). […]
IBA-1–stained cells were counted on flatmounts from control and illuminated mice injected daily with 0.9% NaCl or with aza- and azasulfurylpeptides 1, 2 and 3c or [azaK^6]-GHRP-6 (289 nmol/kg). Cell numbers were expressed as the mean number of IBA-1–positive cells in subretinal space. […]

CD36 [5] = biological target: T1, CD36; settings: read-out: CD36 binding affinity IC50; cited from earlier work
[6] = tested on: MCP-1 secretion in peritoneal macrophages; experiment: MCP-1 secretion by peritoneal macrophages stimulated with R-FSL-1 (ELISA); assay type: cell-based, C57BL/6 mice; settings: 1 µM peptide, 2 h pretreatment, R-FSL-1 300 ng/mL, NA: no activity
Procedure: as §1

[7] = tested on: mouse choroidal explants (RPE/choroid/sclera complex); experiment: Microvascular sprouting on choroid explant as index of angiogenesis; assay type: cell-based; settings: 10^−6 M, 24 h, Matrigel-embedded mouse choroidal explants, n = 3–4
Procedure: Choroidal explants were set as described previously. Briefly, enucleated mice eyes with and without treatment with aza- and azasulfurylpeptides 1, 2 and 3c or [azaK^6]-GHRP-6 were collected and dissected to obtain the complex consisting of the RPE/choroid/sclera, which was cut in 16 explant fragments and cultured in 20 µL of Matrigel (BD biosciences, San Jose, CA, USA) in 24-wells plates (Sarstedt Inc., St. Leonard, QC, Canada). […] Phototographs of explants were taken under microscopy (T0 and T24 h). The explants were washed with endothelial basal medium (EBM) and incubated in EBM with NaCl or CD36 ligands at 10^−6 M for 24 h. The sprouting surface was assessed by image analysis using imagen J software. Ratios (sprouting surface at T24 h, sprouting surface at T0)/sprouting surface at T0 were determined. Numerical results were expressed as mean ± SEM. Data were compared using one-way ANOVA with Dunnett’s post-test. P < 0.05 was considered statistically significant (Prism software version 5.01; graphpad Software, San Diego, CA, USA).

Row | Molecule | NO inhibition Fold of 1 [2] | Inhibitory effect on R-FSL-elicited NO production (in words) [2] | TNFα inhibition Fold of 1 [3] | Decrease of IBA-1+ cell accumulation in the subretina [4] | other results
1 | C[C@H](NC(=O)[C@@H](Cc1c[nH]c2ccccc12)NC(=O)[C@@H](N)Cc1c[nH]cn1)C(=O)NN(Cc1ccc(F)cc1)S(=O)(=O)N[C@H](Cc1ccccc1)C(=O)N[C@@H](CCCCN)C(N)=O [3c, H-His-D-Trp-Ala-(4-F)AsF-D-Phe-Lys-NH2] (H-H[dW]A[X1]K-NH2) | – | – | – | – | IC50 (CD36 [1]): 2530 nM
2 | H-Ala-D-Trp-Ala-AsF(4-F)-D-Phe-Lys-NH2 [3f] | -0.04 Fold of 1 | limited inhibitory effect | – | – | –
3 | H-His-D-Trp-Ala-(4-MeO)AsF-D-Phe-Lys-NH2 [3d] | 1.5 Fold of 1 | – | 1.5 Fold of 1 | – | –
4 | H-His-D-Trp-Ala-AsF(4-HO)-D-Phe-Lys-NH2 [3b] | 0.2 Fold of 1 | – | – | – | –
5 | H-His-D-Trp-Ala-AsF-D-Phe-Lys-NH2 [3a] | 1.6 Fold of 1 | reduced significantly NO production | – | 50% | –
6 | H-His-D-Trp-Ala-AsNal-D-Phe-Lys-NH2 [3e] | 0.06 Fold of 1 | limited inhibitory effect | – | – | –
7 | His-D-Trp-Ala-aza(4-F)Phe-D-Phe-Lys-NH2 (H-H[dW]A[aza(4-F)Phe][dF]K-NH2; SMILES C[C@H](NC(=O)[C@@H](Cc1c[nH]c2ccccc12)NC(=O)[C@@H](N)Cc1c[nH]cn1)C(=O)NN(Cc1ccc(F)cc1)C(=O)N[C@H](Cc1ccccc1)C(=O)N[C@@H](CCCCN)C(N)=O) [compound 2, semicarbazide analog of GHRP-6, CD36 ligand] | – | – | – | – | IC50 (CD36 [5]): 6060 nM
8 | His-D-Trp-Ala-aza(4-F)Phe-D-Phe-Lys-NH2 [compound 2, semicarbazide analog of GHRP-6, CD36 ligand] | 1.4 Fold of 1 | – | 0.87 Fold of 1 | 50% | MCP-1 inhibition Fold of 1 [6]: 0.97 Fold of 1; Effect on choroidal microvascular sprouting (in words) [7]: inhibited microvascular sprouting
9 | His-D-Trp-Ala-azaTyr-D-Phe-Lys-NH2 (H-H[dW]A[azaTyr][dF]K-NH2; SMILES C[C@H](NC(=O)[C@@H](Cc1c[nH]c2ccccc12)NC(=O)[C@@H](N)Cc1c[nH]cn1)C(=O)NN(Cc1ccc(O)cc1)C(=O)N[C@H](Cc1ccccc1)C(=O)N[C@@H](CCCCN)C(N)=O) [compound 1, semicarbazide analog of GHRP-6, CD36 ligand] | – | – | – | – | IC50 (CD36 [5]): 1900 nM
10 | His-D-Trp-Ala-azaTyr-D-Phe-Lys-NH2 [compound 1, semicarbazide analog of GHRP-6, CD36 ligand] | 1 ^a Fold of 1 | – | 1 ^b Fold of 1 | 50% | MCP-1 inhibition Fold of 1 [6]: 1 ^c Fold of 1; Effect on choroidal microvascular sprouting (in words) [7]: inhibited microvascular sprouting
